Experiments:
[1] = target: PPARα receptor (Homo sapiens, UniProt Q07869); test: Transactivation of PPARα; type: cell-based
[2] = tested on: HL-60 cells; test: Differentiation by CD11b/CD14 flow cytometry; type: cell-based, human; details: 7 days, 0.5 μM
[3] = tested on: U937 cells; test: Cell cycle kinetics, proliferating (S+G2M) fraction by flow cytometry; type: cell-based, human
Protocol: (§1) Cell kinetic and DNA fragmentation studies. The cell cycle kinetics was determined by staining cells with acridine orange for cellular DNA and RNA content followed by flow cytometeric analysis as described. Samples were measured in a FACScan flow cytometer (Becton Dickinson, San Jose, Calif.) using the 488-nm line of a […] argon laser and filter settings for green (530 nm) (DNA) and red (585 nm) (RNA) fluorescence. Ten thousand events were stored in list mode for analysis. The percentage of cells in the “sub G1 peak” defined the proportion of apoptotic cells in the tested populations. […] Cell-cycle kinetics was analyzed using ModFit software (Verity Software House, Inc., Topsham, Me.).
CDDO. The effect of CDDO on the survival of HL-60 and U937 leukemia cell lines is depicted in FIG. 1. A time- and dose-dependent decrease of HL-60 cells: at 48 hours, 10^−8 M, at 72 and 96 hours, 10^−9 M of CDDO reduced cell numbers by 50%. Viability of U937 cells was inhibited at 107 to 1018 at 48 hours. DNA fragmentation was measured to confirm that the cell death induced by CDDO was due to apoptosis on a sub G1 cell population by DNA/RNA flow cytometry (FIG. 2). The percentage of proliferating cells were analyzed by FCM.

[4] = tested on: 435 breast cancer cells; test: Breast cancer growth in nude mice; type: in vivo; details: 20 and 40 mg/kg i.v. twice a week
Protocol: CDDO was given at 20 and 40 mg/kg i.v. twice a week 10 days after nude mice were injected s.c. with 2×10^6 estrogen-receptor negative, PPARγ positive 435 breast cancer cells.

[5] = tested on: HL-60 cells; test: Apoptotic sub-G1 cells / apoptosis; type: cell-based, human
Protocol: as §1
Comparison of CDDO-compounds with other PPARγ ligands. […] In contrast, CDDO induced monocytic differentiation at 0.5 to 1.0 μM and apoptosis at 1 μM in HL-60 cells. […] These experiments will define the ability of CDDO to induce differentiation and apoptosis in comparison to other PPARγ ligands. Similar experiments are contemplated with CDDO-Me.

[6] = tested on: Bcl-2 protein in U937 cells; test: Bcl-2 protein by quantitative flow cytometry; type: cell-based, human; details: 1 μM, 72 hrs
Protocol: The involvement of the mitochondrial apoptotic pathway in CDDO mediated apoptosis was analyzed in U937 cells.

[7] = tested on: D9 cells, vector control; test: Annexin V / cell number in D9 vector control cells; type: cell-based
Protocol: Annexin V staining. Cells were washed in phosphate-buffered saline (PBS) and resuspended in 100 μl of binding buffer containing Annexin V (Roche Diagnostic Corporation, Indianapolis, Ind.). Cells were analyzed by flow cytometry after the addition of propidium iodide (PI). Annexin V binds to those cells that express phosphatidylserine on the outer layer of the cell membrane, and PI stains the cellular DNA of those cells with a compromised cell membrane. This allows for live cells (unstained with either fluorochrome) to be discriminated from apoptotic cells (stained only with annexin V) and necrotic cells (stained with both annexin and PI).
To characterize the correlation between PPARγ and caspase activation, caspase-3 levels in D9 cells transfected with wt-PPARγ were analyzed. Six different single cell-derived clones were treated with 3 μM CDDO or vehicle controls for 5 hrs. Caspase-3 cleavage was analyzed by Western blot. A decrease in pro-caspase-3 with appearance of the cleaved product was readily observed in all clones. The degree of cleavage was higher in PPARγ-transfected than in vector control cells that express endogenous PPARγ. […] These changes correlated with plasma membrane changes: vector control=47.0% annexin V-positive cells; wt-PPARγ-transfected cells=73.3±1.1% annexin V (+), n=6. […] PPARγ-transfected cells were also more sensitive to PPARγ-ligand 15d-PGJ2 (41.00% vs 16.0% annexin (+) cells at 3 μM).
To characterize the correlation between PPARγ and caspase activation, caspase-3 levels in D9 cells transfected with wt-PPARγ were analyzed. Six different single cell-derived clones were treated with 3 μM CDDO or vehicle controls for 5 hrs. Caspase-3 cleavage was analyzed by Western blot. A decrease in pro-caspase-3 with appearance of the cleaved product was readily observed in all clones. The degree of cleavage was higher in PPARγ-transfected than in vector control cells that express endogenous PPARγ. […] These changes correlated with plasma membrane changes: vector control=47.0% annexin V-positive cells; wt-PPARγ-transfected cells=73.3±1.1% annexin V (+), n=6. […]

[8] = tested on: AML CD34+ cells; test: Fas expression in primary AML CD34+ cells; type: cell-based, human
Protocol: Immunophenotyping. The PE-conjugated anti-CD11b, FITC-conjugated anti-CD14 monoclonal antibody (mAb) (Becton Dickinson) and PE-conjugated anti-CD95 mAb (PharMingen) were used at a 1/10 dilution. The percentage of positive cells was calculated by subtracting the percentage of cells with a fluorescence intensity greater than the set marker using the isotype control (background) from the percentage of cells with a fluorescence intensity greater than the same marker using the specific antibody.
Mechanisms of CDDO-induced apoptosis in leukemia cell lines and in primary AML samples were also determined. The involvement of the death receptor/Fas pathway was studied in NB4 cells. Treatment with 0.5 μM CDDO induced cell surface Fas/CD95 expression at 48 hours (MFI 34.8 vs 24.8 in DMSO-treated cells and 26 in untreated control). At this concentration, 22.3% of cells were annexin V positive compared with 11.4% in DMSO-controls. At 1 μM, 56.3% of cells were apoptotic. Similarly, 1 μM CDDO induced Fas expression in 7/12 AML CD34+ cells (MFI, 22.3±3.5 in DMSO-controls, 40±4.3 in CDDO-treated CD34+ cells, p<0.01).

[9] = tested on: U937 cells; test: Active caspase detection with Phi-Phi-Lux; type: cell-based, human; details: 1 μM, 6 hours
Protocol: Detection of active caspases. The cell-permeable fluorogenic substrate Phi-Phi-Lux-G1D2 was administered to monitor caspase activity according to the manufacturer's recommendations (OncoImmunin, Inc, Kensington, Md.). Briefly, 10^6 cells were resuspended in 5 μL of substrate solution and incubated for 1 hour at 37° C. in the dark. After incubation, cells were washed, and the fluorescence emission was determined using the FL-1 channel of a Becton Dickinson FACScan flow cytometer.
CDDO-Me. […] Effects of CDDO-Me on the cleavage of caspase-3 were analyzed utilizing the fluorogenic substrate of caspase-3 Phi-Phi-Lux.

Chain of PPARα receptor (Q07869 whole entry): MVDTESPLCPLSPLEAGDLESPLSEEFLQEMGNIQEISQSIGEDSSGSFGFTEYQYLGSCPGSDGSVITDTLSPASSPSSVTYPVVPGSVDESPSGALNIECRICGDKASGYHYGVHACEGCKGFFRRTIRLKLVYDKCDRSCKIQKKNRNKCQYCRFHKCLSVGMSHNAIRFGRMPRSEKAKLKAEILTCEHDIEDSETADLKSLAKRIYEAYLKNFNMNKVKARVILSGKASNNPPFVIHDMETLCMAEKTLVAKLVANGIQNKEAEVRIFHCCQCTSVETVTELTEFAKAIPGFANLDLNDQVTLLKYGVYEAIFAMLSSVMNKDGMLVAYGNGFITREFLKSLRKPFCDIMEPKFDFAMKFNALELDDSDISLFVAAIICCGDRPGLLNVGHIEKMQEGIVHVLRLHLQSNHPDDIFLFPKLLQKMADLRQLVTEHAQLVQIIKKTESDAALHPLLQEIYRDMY

Structure (SMILES) | transactivation of PPARα receptor [1] | CD11b % [2] [%] | proliferating (S+G2M) fraction ([3]; 10^−6 M) [%] | proliferating (S+G2M) fraction ([3]; 10^−7 M (DMSO-controls 23.3%)) [%] | growth of breast cancer cells in vivo [4] | apoptotic sub-G1 cells ([5]; 1 μM, 48 hrs) [%] | concentration at which apoptosis was induced ([5]; HL-60 cells) [µM] | decrease in Bcl-2 protein [6] [%] | annexin V-positive cells ([7]; 3 μM (CDDO: 5 hrs)) [%] | cell number ([7]; 3 μM CDDO) | AML samples with induced Fas expression in CD34+ cells ([8]; 1 μM) | Fas expression, MFI ([8]; 1 μM (22.3±3.5 in DMSO-controls)) | Phi-Phi-Lux positive/PI negative cells [9] [%]
CC1(C)CCC2(C(=O)O)CCC3(C)C(C(=O)C=C4C5(C)C=C(C#N)C(=O)C(C)(C)C5CCC43C)C2C1 (stereo not shown) [CDDO, 2-cyano-3,12-dioxoolen-1,9-dien-28-oic acid] | did not transactivate | 83.1 | 5.6 | 14.9 | inhibits the growth of breast cancer cells in vivo | 34.8 | 1 | > 40 | 47.0 | did not change | 7/12 | 40±4.3 | –
COC(=O)[C@]12CCC(C)(C)C[C@H]1[C@H]1C(=O)C=C3[C@@]4(C)C=C(C#N)C(=O)C(C)(C)[C@@H]4CC[C@@]3(C)[C@]1(C)CC2 [CDDO-Me] | – | – | – | – | – | – | – | – | – | – | – | – | 67

Reference: US7795305B2, “CDDO-compounds and combination therapies thereof” (Board of Regents, The University of Texas System, priority 2000, dated 2010)
